US8791102B2, “Acetanilide sphingosine-1-phosphate receptor antagonists” (Exelixis, Inc., priority 2008, dated 2014)

What follows are molecules tested against T1, human S1P1 receptors (Homo sapiens, UniProt P21453) (assay: S1P1R antagonist assay (fluorescent membrane potential dye, cAMP readout)). Settings: HEK293 cells expressing human S1P1 receptors and CNG channel; 500 nM NECA; S1P1R agonist 10 nM; 90 minutes; read-out: EC50 or IC50 value.
T1 construct: host or cells: HEK293
Type: cell-based

T1 sequence (P21453 whole entry): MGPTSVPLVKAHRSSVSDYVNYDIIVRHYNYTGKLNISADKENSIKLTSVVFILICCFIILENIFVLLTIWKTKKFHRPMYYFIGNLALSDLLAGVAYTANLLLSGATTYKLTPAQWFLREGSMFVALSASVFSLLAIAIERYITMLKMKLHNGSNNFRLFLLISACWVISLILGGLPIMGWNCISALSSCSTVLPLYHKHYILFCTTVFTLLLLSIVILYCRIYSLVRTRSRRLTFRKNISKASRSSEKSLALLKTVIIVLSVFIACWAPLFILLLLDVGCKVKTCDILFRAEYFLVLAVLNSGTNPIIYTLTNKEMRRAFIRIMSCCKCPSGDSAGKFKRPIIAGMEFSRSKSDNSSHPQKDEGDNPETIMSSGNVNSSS

For `O=C(CN1CCN(c2ncccn2)CC1)N[C@@H](COCc1ccccc1)C(=O)Nc1ccc(Oc2ccc(F)cc2)cc1` [Compound 41, (S)-3-(benzyloxy)-N-(4-(4-fluorophenoxy)phenyl)-2-(2-(4-(pyrimidin-2-yl)piperazin-1-yl)acetamido)propanamide], which IC50 is on record?
The IC50 was greater than 1000 nM.

`O=C(NC(COCc1ccccc1)C(=O)Nc1ccc(Oc2ccccc2)cc1)c1ccc(-c2cccc(C(F)(F)F)c2)o1` (stereo not shown) [Compound 321, N-(2-oxo-1-{[(phenylmethyl)oxy]methyl}-2-{[4-(phenyloxy)phenyl]amino}ethyl)-5-[3-(trifluoromethyl)phenyl]furan-2-carboxamide] was tested. Which IC50 did it give?
Its IC50 is greater than 1000 nM.

How did the IC50 turn out when `O=C(NC(COCc1ccccc1)C(=O)Nc1ccc(Oc2ccccc2)cc1)c1cccnc1Cl` (stereo not shown) [Compound 296, 2-chloro-N-(2-oxo-1-{[(phenylmethyl)oxy]methyl}-2-{[4-(phenyloxy)phenyl]amino}ethyl)pyridine-3-carboxamide] was run?
Its IC50 is greater than 1000 nM.

With `CCOCCC(=O)N1C[C@H](Cc2ccccc2)C[C@H]1C(=O)Nc1ccc(Oc2ccc(F)cc2)cc1` [Compound 86, (2S,4R)-4-benzyl-1-(3-ethoxypropanoyl)-N-(4-(4-fluorophenoxy)phenyl)pyrrolidine-2-carboxamide] as the molecule, how does the IC50 read?
Its IC50 is no more than 300 nM.

`CN(C)CCC(=O)N[C@@H](COCc1ccccc1)C(=O)Nc1ccc(Oc2ccc(Cl)cc2)cc1` [Compound 209, (S)-3-(benzyloxy)-N-(4-(4-chlorophenoxy)phenyl)-2-(3-(dimethylamino)propanamido)propanamide] was tested. Which IC50 did it give?
The IC50 was 300 to 1000 nM.

How did the IC50 turn out when `O=C(CN1CCN(C(=O)c2ccco2)CC1)N[C@@H](COCc1ccccc1)C(=O)Nc1ccc(Oc2ccc(F)cc2)cc1` [Compound 223, (S)-3-(benzyloxy)-N-(4-(4-fluorophenoxy)phenyl)-2-(2-(4-(furan-2-carbonyl)piperazin-1-yl)acetamido)propanamide] was run?
The IC50 was 300 to 1000 nM.

Which IC50 does the source give for `COc1ccc(CCCC(=O)NC(COCc2ccccc2)C(=O)Nc2ccc(Oc3ccccc3)cc2)cc1OC` (stereo not shown) [Compound 320, 4-[3,4-bis(methyloxy)phenyl]-N-(2-oxo-1-{[(phenylmethyl)oxy]methyl}-2-{[4-(phenyloxy)phenyl]amino}ethyl)butanamide] here?
Its IC50 is greater than 1000 nM.

Which IC50 does the source give for `O=C(CN1CCN(c2ccccc2)CC1)N[C@@H](COCc1ccccc1)C(=O)Nc1ccc(Oc2ccc(F)cc2)cc1` [Compound 225, (S)-3-(benzyloxy)-N-(4-(4-fluorophenoxy)phenyl)-2-(2-(4-phenylpiperazin-1-yl)acetamido)propanamide] here?
The IC50 was 300 to 1000 nM.

With `CO[C@H](C(=O)NC(COCc1ccccc1)C(=O)Nc1ccc(Oc2ccccc2)cc1)c1ccccc1` (stereo partly drawn) [Compound 381, N-(2-oxo-1-{[(phenylmethyl)oxy]methyl}-2-{[4-(phenyloxy)phenyl]amino}ethyl)-2S-methoxy-2-phenylacetamide] as the molecule, how does the IC50 read?
The IC50 was greater than 1000 nM.

`O=C(Nc1ccc(Oc2ccc(F)cc2)cc1)[C@@H]1C[C@@H](Cc2ccccc2)CN1C(=O)CCCc1ccc2c(c1)OCCO2` [Compound 33, (2S,4R)-4-benzyl-1-(4-(2,3-dihydrobenzo[b][1,4]dioxin-6-yl)butanoyl)-N-(4-(4-fluorophenoxy)phenyl)pyrrolidine-2-carboxamide] was tested. Which IC50 did it give?
The IC50 was no more than 300 nM.

How did the IC50 turn out when `O=C(CCC1CCCCC1)NC(COCc1ccccc1)C(=O)Nc1ccc(Oc2ccccc2)cc1` (stereo not shown) [Compound 317, N-(2-oxo-1-{[(phenylmethyl)oxy]methyl}-2-{[4-(phenyloxy)phenyl]amino}ethyl)-3-cyclohexylpropanamide] was run?
Its IC50 is greater than 1000 nM.

How did the IC50 turn out when `O=C(CN1CCN(CC2CCCO2)CC1)N[C@@H](COCc1ccccc1)C(=O)Nc1ccc(Oc2ccc(F)cc2)cc1` (stereo partly drawn) [Compound 110, (2S)-3-(benzyloxy)-N-(4-(4-fluorophenoxy)phenyl)-2-(2-(4-((tetrahydrofuran-2-yl)methyl)piperazin-1-yl)acetamido)propanamide] was run?
The IC50 was greater than 1000 nM.

`Cc1cc(F)ccc1C[C@@H]1C[C@@H](C(=O)Nc2ccc(Oc3ccc(F)cc3)cc2)N(C(=O)Cn2nccn2)C1` [Compound 7, (2S,4R)-1-(2-(2H-1,2,3-triazol-2-yl)acetyl)-4-(4-fluoro-2-methylbenzyl)-N-(4-(4-fluorophenoxy)phenyl)pyrrolidine-2-carboxamide] was tested. Which IC50 did it give?
Its IC50 is no more than 300 nM.
